Source: patent publication US20200024278A1, “COMPOSITION COMPRISING ANTIBIOTIC COMPOUND AND AN HETEROCYCLIC COMPOUND AND THEIR USE IN PREVENTING OR TREATING BACTERIAL INFECTIONS” (MUTABILIS, priority 2016, published 2020)
Where two headings read alike, the source gives them in different places.

What was measured:
PAE 27853 = format: cell-based, P. aeruginosa; settings: tntbc: Too numerous to be counted
Experimental: (§1) Method 4: Determination of the Spontaneous Mutation Frequency of the Compounds Alone and Combined with Antibiotics.
(§2) Bacterial isolates (Table 3) were grown overnight at 35° C. on TSA plates (Becton-Dickinson and Company) in ambient air. After 24 h of incubation, isolated bacterial colonies were added to cation-adjusted Mueller-Hinton broth (ca-MHB; Becton-Dickinson and Company) and cultured for approximately 6 h at 35° C. The pre-culture was stopped once bacteria have reached an OD600 nm of 0.5 for 200 μL. The bacterial suspension was centrifuged at 4000 rpm for 20 min. The supernatant was then discarded and the bacterial pellet was dissolved in ca-MHB to obtain 10^9 to 10^10 CFU/mL. Assays including Fosfomycin were supplemented with 25 μg/ml of Glucose-6-phosphate. 100 μL of the adjusted bacterial suspension were spread on agar plates containing different concentrations of the compounds of the present invention alone or combined with an antibacterial (Table 1). The plates were incubated for 24-48 h at 35° C. in ambient air. CFU were numerated on each agar plate containing compound. The number of resistant colonies obtained was divided by the starting inoculum to give the frequency of spontaneous resistance for a given incubation time (24 and 48 h).

PAE UFR48 = format: cell-based, P. aeruginosa; settings: tntbc: Too numerous to be counted
Experimental: as §1, §2

PAE UFR90 = format: cell-based, P. aeruginosa; settings: tntbc: Too numerous to be counted
Experimental: as §1, §2

KPN UFR68 = test: MIC, broth microdilution (CLSI), substance alone or ATB combined with compound at 4 or 8 μg/mL; format: cell-based, K. pneumoniae; settings: Klebsiella pneumoniae, substance alone
Method in brief: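 Per CLSI-M7-A7, MICs are determined in cation-adjusted Mueller-Hinton broth with a final inoculum of 5·10^5 CFU/mL. Plates incubate 16-20 h at 35° C in air and are read by eye. Fosfomycin assays carry 25 μg/ml glucose-6-phosphate.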

SMILES | Frequency of spontaneous resistance (PAE 27853; single agent at 4.MIC) | Frequency of spontaneous resistance (PAE 27853; single agent at 8.MIC) | Frequency of spontaneous resistance (PAE UFR48; single agent at 4.MIC) | Frequency of spontaneous resistance (PAE UFR48; single agent at 8.MIC) | Frequency of spontaneous resistance (PAE UFR90; single agent at 4.MIC) | Frequency of spontaneous resistance (PAE UFR90; single agent at 8.MIC) | MIC (KPN UFR68) [µg/mL]
NC[C@H]1C=C(c2cnco2)[C@@H]2CN1C(=O)N2OS(=O)(=O)[O-].O=C(O)C(F)(F)F.[Na+] (relative stereo) [Example 1, sodium and 2,2,2-trifluoroacetate [trans-2-(azaniumylmethyl)-4-oxazol-5-yl-7-oxo-1,6-diazabicyclo[3.2.1]oct-3-en-6-yl] sulfate] | tntbc | tntbc | tntbc | tntbc | tntbc | tntbc | 
NCC[C@H](O)C(=O)N[C@@H]1C[C@H](N)[C@@H](O[C@H]2O[C@H](CN)[C@@H](O)[C@H](O)[C@H]2O)[C@H](O)[C@H]1O[C@H]1O[C@H](CO)[C@@H](O)[C@H](N)[C@H]1O [AN, Amikacin, reference compound] | 6.6E−07 | 1.7E−07 |  |  |  |  | 
CO/N=C(\C(=O)N[C@@H]1C(=O)N2C(C(=O)[O-])=C(C[N+]3(C)CCCC3)CS[C@H]12)c1csc(N)n1 [FEP, Cefepime] |  |  |  |  |  |  | > 256
